Earlier results on 2 molecules are cited in patent publication US20150366832A1, “CARBIDOPA/LEVODOPA GASTRORETENTIVE DRUG DELIVERY” (INTEC PHARMA LTD., priority 2008, published 2015).

As to `N[C@@H](Cc1ccc(O)c(O)c1)C(=O)O` [Levodopa], where the note is “Carbidopa and Levodopa administered together”, the half-life result is “about 1.5 hours”. Besides, the plasma half-life result (without Carbidopa) was “about 50 minutes”.

With `C[C@@](Cc1ccc(O)c(O)c1)(NN)C(=O)O` [Carbidopa], the “reduction of the amount of Levodopa required to produce a given response” value (Carbidopa given with Levodopa) was “about 75%”. For the same molecule, for the setting “human, in vivo”, the “crossing of the blood-brain barrier” value was “does not cross the blood-brain barrier”.
